Data: patent US20250367132A1, “SOLID LIPID NANOPARTICLES FOR ENCAPSULATION AND DELIVERY OF BIOACTIVE COMPOUNDS AND METHODS OF MAKING THE SAME” (Yubeck, Inc., priority 2024, published 2025)

Legend:
[1] = Dynamic light scattering (DLS): mean particle size and polydispersity index; assay type: physicochemical
Protocol: SLNs are characterized by particle size distribution, polydispersity index (PDI), surface charge (zeta potential), encapsulation efficiency (EE %), and loading capacity (LC %), all of which influence their stability, bioavailability, and controlled release properties. Particle size distribution is measured using dynamic light scattering (DLS), nanoparticle tracking analysis (NTA), or any equivalent method, ensuring SLN sizes range from 10 nm approximately 1000 nm. PDI, measured by DLS or NTA indicates uniformity of particle size distribution. Zeta potential, measured using […], electrophoretic light scattering (ELS), or an equivalent method, must have an absolute value of ≥25 mV, ensuring sufficient electrostatic repulsion to maintain colloidal stability. Encapsulation efficiency (EE %) and loading capacity (LC %) are measured using UV-Vis Spectroscopy, high performance liquid chromatography, or liquid chromatography mass spectrometry (LC-MS), amino acid analysis (AAA), or any equivalent method, with target values defined for each bioactive compound.
An example of the manufacturing process of whole Spirulina SLNs is disclosed below. In accordance with an aspect of the present invention, palmitic acid is dissolved in 100% ethanol (1.5 mg/mL) and heated to 70° C. Natural and sustainable ingredients that can be used as alternatives to palmitic acid, include stearic acid, behenic acid, lauric acid, cetyl alcohol, cocoa butter, shea butter, carnauba wax, candelilla wax, beeswax, and glycerol monostearate (GMS). Other natural lipids, such as oleic acid, linoleic acid, alpha-linolenic acid, gamma-linolenic acid, triglycerides such as medium-chain triglycerides (MCTs) or long-chain triglycerides (LCTs), and natural oils such as coconut oil, olive oil, and sunflower oil. Additional naturally derived lipid components such as 1-monolaurin, phosphatidylcholine, and phosphatidylethanolamine may also be used. […] The Spirulina SLNs are quantified using […] to measure the mean particle, PDI, and zeta potential. […]

[2] = cited from earlier work

Molecule	PDI ([1]; non-encapsulated, in solution)	PDI ([1]; unencapsulated, before SLN fabrication)	mean particle size (initial diameter) ([1]; unencapsulated, in ethanol, before SLN fabrication)	Acceptable Daily Intake (ADI) ([2]; FDA, color additive petitions)	No Observed Effect Level (NOEL) ([2]; GRAS submission)
C=C1CC[C@H](O)C/C1=C/C=C1\CCC[C@]2(C)[C@@H]([C@H](C)CCCC(C)C)CC[C@@H]12 [vitamin D3, cholecalciferol]	0.10±0.01%	10.17±2.26	124.6±0.1 nm		
phycocyanin				1.0-1.8 g/p/d	108-184.5 g/p/d
